Assay results: patent publication US5861395A, “Compounds useful for inhibition of farnesyl proteins transferase” (Schering Corporation, priority 1997, dated 1999)
Where “and” joins values, the source holds several entries; their conditions need not be identical. Equal values may be shown once. Read-outs that look alike come from different tables or passages of the source.

Legend:
COS Cell = COS Cell IC50 (Cell-Based Assay)
Method: (§1) FPT IC50 (inhibition of farnesyl protein transferase, in vitro enzyme assay), GGPT IC50 (inhibition of geranylgeranyl protein transferase, in vitro enzyme assay) and COS Cell IC50 (Cell-Based Assay) were determined following the assay procedures described in WO 95/10516, published Apr. 20, 1995. Cell Mat Assay, and anti-tumor activity (in vivo anti-tumor studies) could be determined by the assay procedures described in WO 95/10516. The disclosure of WO 95/10516 is incorporated herein by reference thereto.

Human tumor cells = test: Soft Agar Assay (anchorage-independent growth); format: cell-based; details: Homo sapiens, Table 4; colonies after 10-16 days at 37° C.
Method: Soft Agar Assay: Anchorage-independent growth is a characteristic of tumorigenic cell lines. Human tumor cells are suspended in growth medium containing 0.3% agarose and an indicated concentration of a farnesyl transferase inhibitor. The solution is overlayed onto growth medium solidified with 0.6% agarose containing the same concentration of farnesyl transferase inhibitor as the top layer. After the top layer is solidified, plates are incubated for 10-16 days at 37° C. under 5% CO2 to allow colony outgrowth. […] Colonies can be counted and the IC50 's can be determined.

[1] = target: farnesyl protein transferase (H-ras) (Homo sapiens, UniProt P49354+P49356); test: FPT IC50 (H-ras), in vitro enzyme assay; format: biochemical
Method: as §1

[2] = target: farnesyl protein transferase; test: FPT IC50 (inhibition of farnesyl protein transferase, in vitro enzyme assay); format: biochemical
Excerpt: In Table 2 "Ex. No." stands for "Example Number". In Table 2, FPT IC50 results are less indicated otherwise.

[3] = target: farnesyl protein transferase (K-ras) (Homo sapiens, UniProt P49354+P49356); test: FPT IC50 (K-ras), in vitro enzyme assay; format: biochemical
Method: as §1

[4] = target: T1, geranylgeranyl protein transferase (Rattus norvegicus, UniProt P53610+Q04631); test: GGPT IC50 (inhibition of geranylgeranyl protein transferase, in vitro enzyme assay); format: biochemical
T1 construct: from tissue; host or cells: rat brain (own knowledge of the cited WO 95/10516)
Method: as §1

| SMILES | IC50 (Human tumor cells) [nM] | IC50 ([2]; Table 3) [nM] | IC50 (COS Cell; Table 4) [nM] | further results |
| --- | --- | --- | --- | --- |
| O=C(CC1CCN(C(=O)N2CCOCC2)CC1)N1CCC([C@H]2c3ncc(Br)cc3CCc3cc(Cl)cc(Br)c32)CC1 [Compound 100.0-B] | 380 | – | < 10 | IC50 [1]: 5.5 nM |
| N#CN1CCC(CC(=O)N2CCC(C3c4ccc(Cl)c(Br)c4CCc4cc(Br)cnc43)CC2)CC1 (centres unmarked) [Example 30] | – | – | – | IC50 (COS Cell; Table 2): 460 nM; IC50 ([2]; Table 2): 7 nM; IC50 ([3]; Table 2): 38.7 nM |
| CC(=O)O[C@H]1CC[C@@H](C(=O)N2CCC(CC(=O)N3CCC([C@H]4c5ncc(Br)cc5CCc5cc(Cl)cc(Br)c54)CC3)CC2)CC1 [Compound 66.0-B] | 440 | 7.3 | 10 | – |
| NC(=O)O[C@H]1CC[C@@H](C(=O)N2CCC(CC(=O)N3CCC([C@H]4c5ncc(Br)cc5CCc5cc(Cl)cc(Br)c54)CC3)CC2)CC1 [Compound 94.0-B] | 210 | 4 | 25 | – |
| N=C(Oc1ccccc1)N1CCC(CC(=O)N2CCN(C3c4ccc(Cl)cc4CCc4cc(Br)cnc43)CC2)CC1 (centres unmarked) [Example 3, PHENYL 4-[2-[4-(3-BROMO-8-CHLORO-6,11-DIHYDRO-5 H-BENZO[5,6]CYCLOHEPTA1,2-b]PYRIDIN-11-YL)-1-PIPERAZINYL]-2-OXOETHYL-1-PIPERIDINECARBOXIMIDATE] | – | – | – | IC50 [1]: 290 nM |
| CC(=O)OC[C@H]1O[C@@H](NC(=S)N2CCC(CC(=O)N3CCC([C@H]4c5ncc(Br)cc5CCc5cc(Cl)cc(Br)c54)CC3)CC2)[C@H](OC(C)=O)[C@@H](OC(C)=O)[C@@H]1OC(C)=O [Compound 4.0-B] | – | – | 1000 | IC50 [3]: 29 nM; IC50 [1]: 12 nM |
| N#CN1CCC(CC(=O)N2CCC([C@H]3c4ncc(Br)cc4CCc4cc(Cl)cc(Br)c43)CC2)CC1 [Compound 98.0-B] | 100 | – | 12 | IC50 [3]: 17 nM; IC50 [1]: 2.3 nM and 2.4 nM |
| N=C(NCc1cccnc1)N1CCC(CC(=O)N2CCC(C3c4ccc(Cl)c(Br)c4CCc4cc(Br)cnc43)CC2)CC1 (centres unmarked) [Example 29] | – | – | – | IC50 (COS Cell; Table 2): > 1000 nM; IC50 [4]: 7.5 µM; IC50 ([2]; Table 2): 11 nM; IC50 ([3]; Table 2): 782 nM |

The next lines start with results.

| IC50 (Human tumor cells) [nM] | IC50 ([2]; Table 3) [nM] | SMILES | IC50 (COS Cell; Table 4) [nM] | further results |
| --- | --- | --- | --- | --- |
| – | 3.7 | O=CN1CCC(CC(=O)N2CCC([C@H]3c4ncc(Br)cc4CCc4cc(Cl)cc(Br)c43)CC2)CC1 [Compound 5.0-B] | 8 | IC50 [3]: 16 nM |
| > 500 | 1.7 | O=C(CC1CCN(C(=O)c2cccn2Cc2ccccc2)CC1)N1CCC([C@H]2c3ncc(Br)cc3CCc3cc(Cl)cc(Br)c32)CC1 [Compound 41.0-B] | 30 | – |
| 200 | – | N=C(Oc1ccccc1)N1CCC(CC(=O)N2CCC([C@H]3c4ncc(Br)cc4CCc4cc(Cl)cc(Br)c43)CC2)CC1 [Example 25] | 24 | IC50 (COS Cell; Table 2): 24 nM; IC50 ([2]; Table 2): 8.8 nM; IC50 [3]: 46 nM |
| > 500 | 2.8 | O=C(O)Cn1cccc1C(=O)N1CCC(CC(=O)N2CCC([C@H]3c4ncc(Br)cc4CCc4cc(Cl)cc(Br)c43)CC2)CC1 [Compound 62.0-B] | 700 | – |
| 165 | 1.9 | O=C(CC1CCN(C(=O)c2ccc[n+]([O-])c2)CC1)N1CCC([C@H]2c3ncc(Br)cc3CCc3cc(Cl)cc(Br)c32)CC1 [Compound 46.0-B] | 7 | – |
| 370 | 4 | Cc1noc(C)c1C(=O)N1CCC(CC(=O)N2CCC([C@H]3c4ncc(Br)cc4CCc4cc(Cl)cc(Br)c43)CC2)CC1 [Compound 27.0-B] | 10 | – |
